Assay results as given in patent US20160144021A1, “Vaccine Composition And Method Of Use” (MEDIMMUNE, LLC, priority 2013, published 2016).

Columns and labels:
Assay type in all cases: in vivo
RSV sF protein = experiment: IFNγ and IL-4 ELISPOT of splenocytes, naive cotton rats; settings: splenocytes 4 days post challenge, RSV sF restimulation
Procedure: Paired antibodies for cotton rat IFNγ (#DY565) or IL-4 (#DY584) obtained in R&D DuoSet ELISA Systems were used in ELISPOT assay formats for the evaluation of cotton rat cellular immune responses. 96 well PVDF plates (Millipore, Billerica, Mass.) were coated overnight with kit provided capture antibody (anti-IFNγ or anti-IL-4, respectively) at 10 μg/mL in PBS. Plates were blocked with cRPMI-5 for 2 hours. Cells were then incubated on blocked coated plates in cRPMI-5 for 36-48 hours in triplicate with media, RSV sF ([…]), or ConA (5 μg/mL) as a positive control. Following incubation cells were washed away, plates were incubated with included biotinylated detection antibody (1 μg/mL in PBS+1% BSA) followed by streptavidin-HRP (Mabtech, Cincinnati, Ohio) and 3-amino-9-ethylcarbazole (AEC, Vector Labs, Burlingame, Calif.). Plates were read and analyzed using a CTL ImmunoSpot reader and software (Cellular Technology Ltd).

[1] = test system: RSV-F-derived MHC I restricted peptide; experiment: Granzyme B ELISPOT of splenocytes, naive BALB/c mice; settings: splenocytes 4 days post challenge
From the text: FIGS. 1A-F are graphs showing immune responses to adjuvanted RSV sF vaccines in naïve BALB/c mice. Mice (N=7 per group) were immunized at days 0 and 14 with the indicated vaccines and challenged with 6 log10 PFU of RSV at day 28. Representative data shown from 1 of 2 experiments run with all groups. (A) Lung Viral Titers. Residual virus in the lungs of animals 4 days post challenge was quantified by plaque assay. Individual results are presented in log10, along with a bar representing the group geometric mean. Individuals with undetectable titers were scored at the assay limit of detection (LOD), ˜1.4 log10. (B) Serum RSV-GFP Neutralizing Titers. […] Individuals with undetectable titers were scored at the assay limit of detection (LOD) of 3.3 log2, indicated by a dashed line. […] Shown are the specific IFNγ, IL-5, IL-13, and IL-17 responses to an immunodominant MHC II restricted RSV-F peptide pool calculated by subtracting media control values from test values in multiplexed cytokine analysis. […] Day 28 sera (n=7 per group) were evaluated for F-specific IgG1 and IgG2a isotypes by endpoint titer ELISA. […]
Th1-type responses to a vaccine such as those seen with RSV sF+GLA-SE may support the development of strong CD8 T cell responses. […] To evaluate the cytolytic potential of these responding cells, we evaluated F-specific Granzyme B secretion by ELISPOT.

RSV sF = experiment: Serum anti-F IgG and isotype ELISA, naive Sprague Dawley rats; settings: Day 42
Procedure: In a subsequent study, the immunogenicity and protection following a prime-boost regimen of RSV-SF was evaluated. 40 naive female Sprague Dawley rats were divided into designated vaccine cohorts of 5-6 animals per cohort. Briefly, test groups were given RSV sF (10 μg or 100 μg per animal) without adjuvant or RSV sF (10 μg or 100 μg per animal) with GLA-SE (2.5 μg in 2% SE). Negative control groups were dosed with placebo (PBS buffer) or adjuvant GLA-SE (2.5 μg/2%) without RSV sF. […] Groups 1-6 were inoculated IM with 500 μL of designated vaccine article on Day 0 and Day 22, while Group 7 was inoculated IN with 200 μL of RSV A2 virus on day 0 only. […] Rats were euthanized at 4 days post challenge on Day 46, the day of peak viral replication determined from Study 1. Lungs (excluding 1 lobe which was formalin-fixed) and noses were homogenized and quantified for viral titers.
Serological responses to vaccination were evaluated at 6 hours post immunization, D22, and D42 for all animals and at Day 14 for a subset of 3 animals per group. […] Serum obtained 6 hours post-immunization was evaluated for cytokine titers by multiplexed ELISA. Serum from Days 14, 22, and 42 were measured for total anti-F IgG ELISA endpoint dilution titers. Day 42 serum was evaluated for the specific contribution of IgG1, IgG2a, and IgG2b anti-F responses by ELISA endpoint dilution titers. […]

## RSV sF: RSV soluble F protein, amino acids 1-524 of the RSV A2 F sequence lacking the transmembrane domain, given without adjuvant
RSV sF protein
  F-specific IFNγ ELISPOT response (mean): 58 SFU/million cells
[1]
  F-specific Granzyme B ELISPOT responses (mean): 18
RSV sF
  F-specific isotype balance: higher IgG1 titers than IgG2b titers
